Source: patent US7910111B2, “Inhibitors of N-ethylmaleimide sensitive factor” (The Johns Hopkins University, priority 2003, dated 2011)

Columns and labels:
[1] = tested on: human aortic endothelial cells (HAEC); details: HAEC pre-treated with increasing amounts; DEA-NONOate 10 min, DETA-NONOate 16 h, SNAP 6 h, NEM 1 h, L-NAME 16 h
Procedure: To explore the effect of NO upon granule exocytosis, thrombin induced exocytosis of Weibel-Palade bodies from human aortic endothelial cells (HAEC) which release von Willebrand's Factor (vWF) was studied. HAEC was pre-treated with an NO donor 2-(N,N-diethylamino)-diazenolate-2-oxide (DEA-NONOate) 10 mM or with DEA as a control, stimulated the cells with thrombin 1 U/ml for 1 h, and the amount of vWF released into the media was then measured. […] HAEC was then pre-treated with increasing amounts of various NO donors, including a rapidly releasing NO donor DEA-NONOate for 10 min, a slowly releasing NO donor DETA-NONOate for 16 h, or a nitrosothiol S-nitroso-penicillamine (SNAP) for 6 h; alternatively, cells were treated with NEM for 1 h.
The role of endogenous NO in the regulation of Weibel-Palade body exocytosis was then explored. HAEC was pre-treated with L-NAME for 16 h in order to inhibit endogenous NOS, and then the cells were stimulated with 1 U/ml thrombin for 1 h and vWF release was measured. […] HAEC was next pre-treated with vascular endothelial growth factor (VEGF) in order to activate endogenous NOS3. Cells were incubated with 50 ng/ml VEGF or control for 2 h, and then stimulated with thrombin.
A peptide inhibitor of NSF that crosses cell membranes was designed. This peptide, designated TAT-NSF222, includes the protein transduction domain of HIV TAT (residues 47-57) previously shown to transduce polypeptides into cells (Becker-Hapak et al., 2001), fused to a fragment of NSF (residues 222-243) previously shown to inhibit NSF (Schweizer et al., 1998). […] HAEC were then incubated for 20 min with TAT-NSF222, or with a control peptide TAT-NSF222scr that consisted of the intact TAT domain followed by the amino acid residues of NSF 222-243 in a scrambled order. HAEC were transduced with TAT-NSF peptides, treated with media or thrombin, and the amount of vWF released into the media was measured by ELISA.
Since NSF plays a general role in vesicle trafficking, permanent inactivation of NSF would slow vesicular trafficking in general. However, local production of NO at the plasma membrane and reversible nitrosylation of NSF could provide spatial regulation of NSF.
Human aortic endothelial cells (HAEC) and EGM-2 media were obtained from Clonetics (Walkersville, Md.). HAEC were pre-treated with NO donors, washed, stimulated with 1 U/mil of thrombin, and the amount of vWF released into the media was measured by an ELISA (American Diagnostica, Greenwich, Conn.). HAEC were permeabilized by incubation with 10 U/well of SLO (Sigma) in PBS pH 7.4 for 15 min at 37° C. (Walev et al., 2001). Some cells were incubated with 20-200 μg/ml of antibodies or with 100 μg/ml of recombinant NSF. Cells were then resealed by incubation with EGM-2 media for 4 h at 37° C., washed with EGM-2 media, and stimulated with thrombin as above.
The ability of TAT-NSF to affect exocytosis from cells was investigated. Endothelial cells release vWF by exocytosis when stimulated by thrombin. Accordingly, endothelial cells were incubated with increasing amounts of TAT-NSF peptides for 20 min, then treated with 1 U/ml thrombin, and the amount of vWF released into the media was measured by ELISA.
Human aortic endothelial cells (HAEC) and EGM-2 media were obtained from Clonetics (Walkersville, Md.). HAEC were pre-treated with TAT-NSF peptides for 20 min, washed, stimulated with 1 U/ml of thrombin, and the amount of vWF released into the media was measured by an ELISA (American Diagnostica, Greenwich, Conn.).

recombinant NSF [2] = target: T1, recombinant NSF (Cricetulus griseus, UniProt P18708); assay: NSF ATPase assay (coupled colorimetric assay); assay type: biochemical; details: recombinant NSF
T1 construct: RGS-(His)6 (N); made in house; host or cells: bacteria
Procedure: The effect of NO upon NSF activity was next explored, since NO inhibits Weibel-Palade body exocytosis, and since NSF regulates Weibel-Palade body exocytosis. The effect of NO upon the ATPase activity of NSF was first examined. DEA-NONOate was added to recombinant NSF, and the ATPase activity of NSF was measured.
(§1) The ATPase activity of NSF was measured by a coupled assay, in which ATP utilization is linked to the pyruvate kinase reaction, which generates pyruvate, which in turn is measured continuously with lactate dehydrogenase (Huang and Hackney, 1994). Recombinant NSF (0.2 μg/μl) was pre-treated with buffer or DEA or DEA-NONOate or NEM for 10 min at 22° C. ATPase reaction buffer (100 mM HEPES buffer, pH 7.0, 100 mM KCl, 10 mM MgCl2, 5 mM CaCl2, 10 mM ATP, 5 mM phosphoenol pyruvate, 50 U lactate dehydrogenase, and 50 U pyruvate kinase) was added to the mixture, followed by 10 μl of NADH (2 mg/ml in 1% sodium bicarbonate). The mixture was incubated for 10 min at 22° C., and the absorbance was measured at 340 nm.
The effect of the TAT-NSF peptide inhibitors upon the ability of NSF to hydrolyze ATP was measured. 10 μM TAT-NSF peptides was added to recombinant NSF, and the hydrolysis of ATP was measured. All 5 TAT-NSF peptides inhibited NSF ATPase activity (FIG. 8A). […] The effects of TAT-NSF81 (SEQ ID NO: 6) upon NSF were further defined. TAT-NSF81 (SEQ ID NO: 6) inhibits NSF ATPase activity in a dose-dependent manner with an IC50% between 1-10 μM (FIG. 8B).
as §1, with “TAT-NSF peptides” for “DEA or DEA-NONOate or NEM”

[3] = target: T2, NSF disassembly of the SNARE complex (Cricetulus griseus, UniProt P18708); assay type: biochemical; details: ATP
T2 construct: made in house; host or cells: bacteria (NSF, alpha-SNAP); BL21 cells (GST-SNAREs)
Procedure: Accordingly, recombinant NSF was pre-treated with the NO donor DEA-NONOate 1 mM for 10 min. Pre-treated NSF, α-SNAP, and detergent extracts of HAEC membranes were then mixed in the presence of 0.5 mM ATP or ATP-γS. These reactions were then fractionated by sucrose density gradient ultracentrifugation, fractions were collected from the bottom of the tube, and immunoblotted with antibody to syntaxin-4.
The effect of NO upon NSF disassembly of purified, recombinant SNARE molecules was next examined. Recombinant (His)6-NSF was pre-treated or not with 1 mM DEA-NONOate for 10 min, and then mixed with and (His)6-a-SNAP and recombinant SNARE fusion polypeptides identified in endothelial cells: GST-syntaxin-4, VAMP-3, and SNAP-23. ATP or ATP-γS was added, the mixture was precipitated with glutathione-sepharose beads, and precipitated proteins were fractionated by SDS-PAGE and immunoblotted with antibody to the NSF tag.
The disassembly activity of NSF was measured by a co-precipitation assay (Pevsner et al., 1994). […] This mixture of NSF and SNARE polypeptides was then incubated in binding buffer (4 mM HEPES pH 7.4, 0.1M NaCl, 1 mM EDTA, 3.5 mM CaCl2, 3.5 mM MgCl2, and 0.5% Nonidet P-40) and glutathione-sepharose beads for 1 h at 4° C. with rotation. The beads were washed with binding buffer 4 times, mixed with SDS-PAGE sample buffer, boiled for 3 min, and analyzed by immunoblotting.
The effect of the TAT-NSF peptide inhibitors upon the ability of NSF to separate from SNARE complexes was measured. Recombinant NSF was pre-treated with 1 μM TAT-NSF peptides, and recombinant GST-SNARE polypeptides were then added, including syntaxin-4, SNAP-23, and VAMP-3. […]
The effect of TAT-NSF peptides on NSF disassembly activity was determined. […]
TAT-NSF81 (SEQ ID NO: 6) inhibition of NSF disassembly activity was also investigated. […] ATP was added, GST-SNAREs were precipitated with glutathione-sepharose, and the precipitant was analyzed for the co-precipitation of NSF.
The disassembly activity of NSF was measured by a co-precipitation assay (Pevsner et al., 1994). […]

recombinant NSF [4] = target: T1, recombinant NSF; assay: S-nitrosylation of recombinant NSF (Saville reaction); assay type: biochemical; details: 1 mM DEA-NONOate
Procedure: The number of cysteine residues that are nitrosylated by exogenous NO was next measured. Recombinant NSF was exposed to increasing amounts of DEA-NONOate, and then the Saville reaction was used to measure the number of nitrosocysteine residues per molecule of NSF. NO nitrosylates NSF in a dose-dependent manner (FIG. 4C). At 1 mM DEA-NONOate, approximately 3 cysteine residues are modified by NO per each molecule of NSF.
Measurement of cysteine residues nitrosylated in vitro was performed by the Saville and Griess assays (Saura et al., 1999). Measurement of NSF nitrosylated in cultured cells was performed by immunoprecipitation with antibody to nitrosocysteine, followed by immunoblotting with antibody to NSF. Measurement of cysteine residues nitrosylated in vivo was performed as previously (Jaffrey et al., 2001; Jaffrey and Snyder, 2001).

T1 sequence (P18708 whole entry): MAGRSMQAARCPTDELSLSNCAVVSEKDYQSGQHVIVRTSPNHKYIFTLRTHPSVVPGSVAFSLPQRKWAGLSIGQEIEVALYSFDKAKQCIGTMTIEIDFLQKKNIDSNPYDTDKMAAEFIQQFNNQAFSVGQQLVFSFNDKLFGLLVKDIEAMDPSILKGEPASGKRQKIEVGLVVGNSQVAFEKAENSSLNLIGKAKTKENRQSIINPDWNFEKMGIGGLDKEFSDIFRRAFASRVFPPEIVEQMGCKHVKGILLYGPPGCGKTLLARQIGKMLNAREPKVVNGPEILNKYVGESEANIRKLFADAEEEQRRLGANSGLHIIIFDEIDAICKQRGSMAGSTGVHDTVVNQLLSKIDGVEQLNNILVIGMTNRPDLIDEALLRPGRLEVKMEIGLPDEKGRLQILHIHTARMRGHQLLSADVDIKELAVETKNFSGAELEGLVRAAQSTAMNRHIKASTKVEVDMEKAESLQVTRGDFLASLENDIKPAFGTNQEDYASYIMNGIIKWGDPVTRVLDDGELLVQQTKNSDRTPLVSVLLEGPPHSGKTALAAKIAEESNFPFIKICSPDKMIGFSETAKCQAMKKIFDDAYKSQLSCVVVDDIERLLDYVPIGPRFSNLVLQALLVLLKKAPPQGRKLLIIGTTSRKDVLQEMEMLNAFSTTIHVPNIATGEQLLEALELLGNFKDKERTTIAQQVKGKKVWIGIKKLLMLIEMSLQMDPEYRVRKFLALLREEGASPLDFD
T2 sequence (P18708 whole entry): as above
T2 sequence (P81125 whole entry partner): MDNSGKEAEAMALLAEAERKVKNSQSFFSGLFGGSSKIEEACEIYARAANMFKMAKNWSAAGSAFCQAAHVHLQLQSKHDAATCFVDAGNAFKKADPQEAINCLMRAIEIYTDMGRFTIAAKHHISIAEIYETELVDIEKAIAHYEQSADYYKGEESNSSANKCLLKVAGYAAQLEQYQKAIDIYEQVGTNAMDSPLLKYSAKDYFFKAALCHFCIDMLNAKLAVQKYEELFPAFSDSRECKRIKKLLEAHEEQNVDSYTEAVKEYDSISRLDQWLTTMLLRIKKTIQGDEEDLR
T2 sequence (Q12846 whole entry partner): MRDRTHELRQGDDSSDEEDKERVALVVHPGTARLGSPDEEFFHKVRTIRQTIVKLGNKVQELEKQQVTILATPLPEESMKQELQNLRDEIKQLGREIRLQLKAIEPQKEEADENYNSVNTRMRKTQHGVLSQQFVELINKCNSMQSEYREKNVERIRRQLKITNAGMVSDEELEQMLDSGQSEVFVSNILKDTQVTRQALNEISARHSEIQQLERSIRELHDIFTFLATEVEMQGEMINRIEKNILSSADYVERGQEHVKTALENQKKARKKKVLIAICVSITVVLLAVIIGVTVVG
T2 sequence (Q15836 whole entry partner): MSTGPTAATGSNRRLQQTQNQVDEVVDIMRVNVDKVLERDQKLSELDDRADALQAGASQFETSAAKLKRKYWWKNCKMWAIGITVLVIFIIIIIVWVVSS
T2 sequence (O00161 whole entry partner): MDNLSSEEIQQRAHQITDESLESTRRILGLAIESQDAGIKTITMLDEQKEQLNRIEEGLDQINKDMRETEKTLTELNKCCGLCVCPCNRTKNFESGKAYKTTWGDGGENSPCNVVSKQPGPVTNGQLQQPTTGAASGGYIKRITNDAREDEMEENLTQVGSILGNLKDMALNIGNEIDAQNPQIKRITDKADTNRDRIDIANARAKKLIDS

## CCN(CC)[N+]([O-])=NO [DEA-NONOate, 2-(N,N-diethylamino)-diazenolate-2-oxide]
[1]
  effect on thrombin induced vWF release, dose response: inhibits thrombin induced vWF release
Recombinant NSF [2]
  effect on NSF ATPase activity: does not significantly inhibit NSF hydrolysis of ATP
[3]; NSF pre-treated with 1 mM for 10 min, HAEC membrane extracts
  effect on NSF disassembly of 20S SNARE complex from endothelial cell extracts: inhibits the ability of NSF to disassemble a 20S SNARE complex
[3]; recombinant NSF, α-SNAP, GST-SNAREs, TAT-NSF peptides 1 μM in Example 2
  effect on NSF disassembly activity: inhibits NSF disassembly activity
Recombinant NSF [4]
  cysteine residues modified by NO per molecule of NSF: approximately 3
